Literature values in US8349821B2, “Stanol composition and the use thereof” (Raisio Nutrition Ltd., priority 1996, dated 2013).

How the values were obtained:
[1] = test system: male subjects; conditions: for Absorption rate, on average: intestinal perfusion technique, ten male subjects
[2] = test system: healthy humans; conditions: in vivo

Row | Structure (SMILES) | Dietary campesterol absorbed ([1]; in vivo) | Absorption rate, on average [1] | Absorbability (in words) [2] | Amount that can be absorbed [2]
1 | CC(C)[C@H](C)CC[C@@H](C)[C@H]1CC[C@H]2[C@@H]3CC=C4C[C@@H](O)CC[C@]4(C)[C@H]3CC[C@]12C [campesterol] | up to 10% | 9.6% | – | –
2 | CC[C@H](CC[C@@H](C)[C@H]1CC[C@H]2[C@@H]3CC[C@H]4C[C@@H](O)CC[C@]4(C)[C@H]3CC[C@]12C)C(C)C [sitostanol] | – | – | practically unabsorbable | –
3 | CC[C@H](CC[C@@H](C)[C@H]1CC[C@H]2[C@@H]3CC=C4C[C@@H](O)CC[C@]4(C)[C@H]3CC[C@]12C)C(C)C [sitosterol] | – | 4.2% | – | < 5%
4 | CC[C@H](/C=C/[C@@H](C)[C@H]1CC[C@H]2[C@@H]3CC=C4C[C@@H](O)CC[C@]4(C)[C@H]3CC[C@]12C)C(C)C [stigmasterol] | – | 4.8% | – | –
